The subject of this experiment is antibody MBS-3 binding to p17. Nature of the experiment: Competitive ELISA: displacement of MBS-3 binding to p17 absorbed in solid phase.

Take “NH2-Ser-Gly-Gly-Glu-Leu-Asp-Arg-Trp-Glu-Lys-Ile-Arg-Leu-Arg-COOH (H-SGGELDRWEKIRLR-OH) [SEQ ID NO: 2]”: the “displacing the binding of the antibody MBS-3 to p17” value is on record as “efficacious in displacing”.

The record behind these values is US20040249124A1 (priority 2001, published 2004).
